What was measured:
Assay type in all cases: physicochemical
[1] = Solubility assessment of MH1 in solvents (HPLC of liquors, XRPD of isolated solids); conditions: for solubility at 24 h: organic solvent or mixture, thermodynamic from solid
Description: Procedure: Four solvents were chosen based on the competitive slurry experiments that favored MH1 as well as for diversity. Combinations of those solvents with water (aw=0.35) were also utilized to verify which hydrate is favored. Mixtures of the solvents with heptane (1:1) were used to check for crystal form with a good antisolvent.
MH1 (22×104 mg) was suspended in various solvents (11×0.5 ml) and stirred at either 5 or 50° C. for 24 hours at 750 rpm. The solids were isolated by filtration and centrifugation and the liquors were analysed by HPLC to determine their solubility (relative to a standard made up). The solids were also investigated by XRPD. This procedure was also followed for an additional five solvent systems comprising different ratios of THF:heptane and IPA:heptane at either 5 or 50° C. The isolated solids were investigated by XRPD, HPLC and ^1HNMR.

[2] = Water activity experiments (slurries, XRPD)
Description: MH1 (30.0 mg) was weighed into HPLC vials and placed in a vacuum oven to dry over the weekend. All samples were then placed in a desiccator prior to use to ensure dryness. Solvent ([…]) was added and slurries agitated at either 25° C. or 5° C. Further MH1 was added to any solutions formed to return to a slurry. Ethyl acetate and methyl acetate were both dried prior to use. After four days, the samples were analysed by XRPD with minimum exposure to ambient conditions.
Selected samples were also characterised after standing at ambient for 2 days by XRPD, 1H NMR, TGA and DSC.

[3] = Drying investigation of the two hydrates (vacuum oven, XRPD and TGA)
Description: Procedure: MH1 and MH2 were placed in a vacuum oven at 50° C. and RT for 24 h. The samples were then analysed by TGA and XRPD immediately after removal and after 4 hours standing under ambient conditions.

[4] = Ethanol:Heptane 1:1, 5° C., 24 hours
[5] = IPrOAc:0.5% water, 50° C., 24 hours
[6] = IPrOAc:Heptane 1:1, 5° C., 24 hours
[7] = IPrOAc:Heptane 1:1, 50° C., 24 hours
[8] = THF:0.8% water, 5° C., 24 hours
[9] = THF:Heptane 1:1, 5° C., 24 hours
[10] = THF:Heptane 1:1, 50° C., 24 hours
[11] = 0.5% water/EtOAc, Aw = 0.3, four days
[12] = 0.8% water/MeOAc, Aw = 0.4, four days
[13] = 1% water/EtOAc, Aw = 0.5, four days
[14] = 1.5% water/EtOAc, Aw = 0.6, four days
[15] = 2% water/EtOAc, Aw = 0.7, four days
[16] = 2.7% water/EtOAc, Aw = 0.8, four days
[17] = 7.5% water/MeOAc, Aw = 0.9, four days
[18] = EtOAc, Sieves, slurry four days

Solubility ([1]; Ethanol, 5° C., 24 hours): >200 mg/mL
Solubility ([1]; Ethanol, 50° C., 24 hours): >200 mg/mL
Solubility ([1]; Ethanol:4.2% water, 5° C., 24 hours): >200 mg/mL
XRPD (isolated solid) [1, 4]: MH1 + AH
XRPD (isolated solid) ([1]; Heptane, 5° C., 24 hours): MH1
XRPD (isolated solid) ([1]; Heptane, 50° C., 24 hours): MH1 + AH
XRPD (isolated solid) ([1]; IPA, 5° C., 24 hours): MH1 + AH
Solubility ([1]; IPA, 50° C., 24 hours): >200 mg/mL
XRPD (isolated solid) ([1]; IPA:Heptane 1:1, 5° C.): MH1
XRPD (isolated solid) ([1]; IPA:Heptane 1:2, 5° C.): MH1
XRPD (isolated solid) ([1]; IPA:Heptane 1:2, 50° C.): MH1
XRPD (isolated solid) ([1]; IPA:Heptane 1:3, 5° C.): MH1
XRPD (isolated solid) ([1]; IPA:Heptane 1:3, 50° C.): MH1
solubility at 24 h ([1]; IPrOAc with 0.5% water, IPrOAc:0.5% water, 5° C., 24 hours): 3.8 mg/mL
XRPD (isolated solid) ([1]; IPrOAc, 5° C., 24 hours): MH1
XRPD (isolated solid) ([1]; IPrOAc, 50° C., 24 hours): MH1 + AH
XRPD (isolated solid) ([1]; IPrOAc:0.5% water, 5° C., 24 hours): MH2
XRPD (isolated solid) [1, 5]: MH1
XRPD (isolated solid) [1, 6]: MH1
XRPD (isolated solid) [1, 7]: MH1
XRPD (isolated solid) ([1]; THF, 5° C., 24 hours): MH2 + New peaks
Solubility ([1]; THF, 50° C., 24 hours): >200 mg/mL
XRPD (isolated solid) [1, 8]: MH2
XRPD (isolated solid) [1, 9]: MH1
XRPD (isolated solid) [1, 10]: MH1
XRPD (isolated solid) ([1]; THF:Heptane 1:2, 5° C.): MH1
XRPD (isolated solid) ([1]; THF:Heptane 1:2, 50° C.): MH1
XRPD (isolated solid) ([1]; THF:Heptane 2:1, 5° C.): MH2
XRPD (isolated solid) ([1]; THF:Heptane 2:1, 50° C.): MH1
solubility at 24 h ([1]; ethanol with 4.2% water, Ethanol:4.2% water, 5° C., 24 hours): > 200 mg/mL
solubility at 24 h ([1]; Ethanol, 5° C., 24 hours): > 200 mg/mL
solubility at 24 h ([1]; Ethanol, 50° C., 24 hours): > 200 mg/mL
solubility at 24 h ([1]; Ethanol:4.2% water, 50° C., 24 hours): > 200 mg/mL
solubility at 24 h [1, 4]: 170 mg/mL
solubility at 24 h ([1]; Ethanol:Heptane 1:1, 50° C., 24 hours): > 200 mg/mL
solubility at 24 h ([1]; IPA, 5° C., 24 hours): 130 mg/mL
solubility at 24 h ([1]; IPA, 50° C., 24 hours): > 200 mg/mL
solubility at 24 h ([1]; IPA:Heptane 1:1, 5° C.): 40 mg/mL
solubility at 24 h ([1]; IPA:Heptane 1:1, 50° C.): > 200 mg/mL
solubility at 24 h ([1]; IPA:Heptane 1:2, 5° C.): 14 mg/mL
solubility at 24 h ([1]; IPA:Heptane 1:2, 50° C.): 19 mg/mL
solubility at 24 h ([1]; IPA:Heptane 1:3, 5° C.): 8 mg/mL
solubility at 24 h ([1]; IPA:Heptane 1:3, 50° C.): 10 mg/mL
solubility at 24 h ([1]; IPrOAc, 5° C., 24 hours): 11 mg/mL
solubility at 24 h ([1]; IPrOAc, 50° C., 24 hours): 6.3 mg/mL
solubility at 24 h [1, 5]: 5.6 mg/mL
solubility at 24 h [1, 6]: 1.9 mg/mL
solubility at 24 h [1, 7]: 2.1 mg/mL
solubility at 24 h ([1]; THF, 5° C., 24 hours): 79 mg/mL
solubility at 24 h ([1]; THF, 50° C., 24 hours): > 200 mg/mL
solubility at 24 h [1, 8]: 76 mg/mL
solubility at 24 h ([1]; THF:0.8% water, 50° C., 24 hours): > 200 mg/mL
solubility at 24 h [1, 9]: 6.3 mg/mL
solubility at 24 h [1, 10]: 11 mg/mL
solubility at 24 h ([1]; THF:Heptane 1:2, 5° C.): 0.33 mg/mL
solubility at 24 h ([1]; THF:Heptane 1:2, 50° C.): 0.62 mg/mL
solubility at 24 h ([1]; THF:Heptane 2:1, 5° C.): 17 mg/mL
solubility at 24 h ([1]; THF:Heptane 2:1, 50° C.): 21 mg/mL
Results for 5° C. (form by XRPD) [2, 11]: MH1
Results for 25° C. (form by XRPD) [2, 11]: MH1
Results for 5° C. (form by XRPD) [2, 12]: MH1
Results for 25° C. (form by XRPD) [2, 12]: MH1
Results for 5° C. (form by XRPD) [2, 13]: New Form
Results for 25° C. (form by XRPD) [2, 13]: MH1
Results for 5° C. (form by XRPD) [2, 14]: New Form
Results for 25° C. (form by XRPD) [2, 14]: MH1
Results for 5° C. (form by XRPD) [2, 15]: New Form
Results for 25° C. (form by XRPD) [2, 15]: New Form
Results for 5° C. (form by XRPD) [2, 16]: New Form
Results for 25° C. (form by XRPD) [2, 16]: New Form
Results for 5° C. (form by XRPD) [2, 17]: New Form
Results for 25° C. (form by XRPD) [2, 17]: New Form
Results for 5° C. (form by XRPD) [2, 18]: MH1
Results for 25° C. (form by XRPD) [2, 18]: MH1
XRPD (T = 0, 50° C.) ([3]; vacuum oven 50° C. 24 h, immediately after removal): Matches MH1 and AH
TGA (T = 0, 50° C.) ([3]; vacuum oven 50° C. 24 h, immediately after removal, lost between 25 and 100° C.): 0.3% w/w lost between
TGA (T = 4 h, 50° C.) ([3]; vacuum oven 50° C. 24 h, then 4 hours ambient, lost between 25 and 100° C.): 2.7% w/w lost between
XRPD (T = 4 h, 50° C.) ([3]; vacuum oven 50° C. 24 h, then 4 hours at ambient conditions): Matches MH1
XRPD (T = 0, RT) ([3]; vacuum oven RT 24 h, immediately after removal): Matches MH1 and AH
TGA (T = 0, RT) ([3]; vacuum oven RT 24 h, immediately after removal, lost between 25 and 100° C.): 0.3% w/w lost between
TGA (T = 4 h, RT) ([3]; vacuum oven RT 24 h, then 4 hours ambient, lost between 25 and 100° C.): 1.8% w/w lost between
XRPD (T = 4 h, RT) ([3]; vacuum oven RT 24 h, then 4 hours at ambient conditions): Matches MH1
Compound: C[C@@H]1CN(Cc2ncccn2)C[C@H]1c1cn2c(C3CCOCC3)ncc2c(=O)[nH]1 [MH1, 6-[(3S,4S)-4-methyl-1-(pyrimidin-2-ylmethyl)pyrrolidin-3-yl]-3-tetrahydropyran-4-yl-7H-imidazo[1,5-a]pyrazin-8-one]

From patent US12466832B2, “Monohydrate and crystalline forms of 6-[(3S,4S)-4-methyl-1-(pyrimidin-2-ylmethyl)pyrrolidin-3-yl]-3-tetrahydropyran-4-yl-7H-imidazo[1,5-a]pyrazin-8-one” (Cardurion Pharmaceuticals, Inc., priority 2018, dated 2025)
